Patent publication US12350250B2, “Aggrelytes for treating ocular conditions” (The Regents of the University of Colorado, a Body Corporate, priority 2022, dated 2025)

Tests used:
[1] = Stability of aggrelytes under physiological conditions (1H-NMR); type: physicochemical; conditions: 50 mM phosphate buffer, pH 7.4, 37° C.; for degraded during 3-day incubation: 3 days; for degraded during 7-day incubation: 7 days
Experimental: Aggrelyte-2 (N,S-diacetyl-L-cysteine methyl ester; Astatech Catalog #D95910) and Aggrelyte-2C (N-acetyl cysteine methyl ester; Sigma Aldrich Catalog #01042) (2 mg each) were incubated in 1 mL of 50 mM phosphate buffer, pH 7.4, at 37° C. Aliquots were withdrawn immediately after incubation (Day 0) and after 1, 3, and 7 days. Stability of the aggrelytes was tested using ^1H-NMR (in DMSO-d6) spectroscopy. The NMR peak integration values for the S-acetyl or N-acetyl cysteine methyl proton were compared with the cysteine methine proton.

[2] = tested on: acetyllysine (AcK)-bearing proteins in solubilized human lens WI proteins; experiment: AcK-bearing proteins in solubilized human lens proteins (Western blot densitometry); type: biochemical; conditions: 500 μM, solubilized proteins of ten human lenses (65 to 75 years), vs Control
Source text: Chemiluminescence was detected using an Enhanced Chemiluminescence Detection Kit (Thermo Scientific). Then the membrane was stained with Ponceau-S to visualize the proteins and normalize the detected AcK-bearing protein to the total protein load via densitometry.

[3] = tested on: AcK in solubilized WI protein of human lenses; experiment: AcK in solubilized human lens proteins (LC-MS/MS); type: biochemical; conditions: 500 μM, 24 hours; for AcK level: solubilized WI protein, human lenses (55-67 years)
Experimental: Water-insoluble proteins were prepared from aged human lenses (55-67 years) as described in Example 3, and incubated with 0 or 500 μM Aggrelyte-2 or Aggrelyte-2C for 24 hours as described in Example 3. Solubilized WI protein fractions (0.5 mg/mL) and water soluble (WS) protein fractions (3 mg/mL from human lenses) were sequentially digested with enzymes as previously described (Nandi et al., 2019, Biochemistry, 58(9):1260-1274). The enzyme-digested samples were analyzed for AcK by LC-MS/MS using the standard addition method as previously described (id.) The AcK levels were calculated based on the protein input in the enzymatic digestions.

αA-crystallin (αAC) = experiment: Crystallin levels in solubilized human lens proteins (Western blot), αAC; type: biochemical; conditions: 500 μM, solubilized proteins of three human lenses
Experimental: The contents of crystalline proteins [αA-crystallin (αAC), αB-crystallin (αBC), β-crystallin (βC), and γ-crystallin (γC)] in the solubilized proteins of three human lenses treated with either Aggrelyte-2 or Aggrelyte-2C (500 μM) from Example 4 were determined by Western blot analysis as described for Example 5. Membranes were incubated with antibodies against αAC (1:14,000 dilution; Enzo Life Sciences, Catalog #ADI-SPA-221D), αBC (1:700,000 dilution; University of Iowa), βC (1:14,000 dilution; Santa Cruz Biotechnology, Catalog #sc-22745), and γC (1:7,000 dilution; Santa Cruz Biotechnology, Catalog #sc-22746). The secondary antibodies were HRP-conjugated anti-mouse IgG for αBC and HRP-conjugated […] (Cell Signaling Technology, Catalog #7074S) for αAC, βC, and γC. According to the supplier, the […] detects mostly βB1-crystallin and, to a lesser extent, βA1/3, βA2, βA4, βB2, and βB3-crystallin. The γC antibody reacts with γA, γB, γC, γD, γE, and γF-crystallin.

mouse lenses = experiment: Stiffness and axial strain of ex vivo mouse lenses (Example 10); parameters: species or system mouse (C57BL/6J); conditions: 1 mM, 24 hours, 100 mg load
Experimental: In this example, the lenses were dissected from the eyes of mice (C57BL/6J, 5-8 months old, Jackson Laboratories, Stock No. 000664, n=4-5) by a posterior approach and incubated without (“Control”) or with Aggrelyte-2 or Aggrelyte-2C (1 mM) for 24 hours in serum-free and phenol-red-free MEM (297 mOsm) at 37° C. Lens stiffness was measured as previously described in Baradia, H. et al., (2010) Exp. Eye Res. 91, 300-307. Briefly, the lens was placed on a flat platform with the anterior side facing up, and a load was applied to the top of the lens at 100 mg increments for mouse lenses and at 250 mg increments for human lenses. The displacement in the lens axial diameter (in μm or mm) was measured using MATLAB software developed by Dr. Adrian Glasser, UK, and plotted against the load applied. The displacement at a specific load was used to determine differences in lens stiffness between the untreated control and aggrelyte-treated lenses.
Freshly obtained human lenses (42-68 years old, n=10-12) were incubated with or without Aggrelyte-2 or Aggrelyte-2C (1 mM) for a total of 72 h in phenol red-free MEM with a change in media containing freshly dissolved aggrelytes every 24 h. One lens from each donor pair was used as the control, and the other was treated with aggrelyte. After incubation, the lens stiffness was measured as described above. Axial strain was also calculated based on the following formula: […]

human lenses = experiment: AcK-bearing proteins in WS cortical and nuclear fractions of treated human lenses (Western blot); conditions: 1 mM, 72 h, vs untreated controls
Experimental: For Western blotting, 10-20 μg of protein from each lens sample was used and each sample was separately processed three times and analyzed.

human recombinant αAC = target: T1, human recombinant αAC (Homo sapiens, UniProt P02489); experiment: AGE formation (CML, CEL) in glycated recombinant αAC; type: biochemical; conditions: αAC 3 mg/mL pretreated with 10 mM aggrelyte-2 for 24 h, glycating mixture 5 days
T1 sequence (P02489 1-173): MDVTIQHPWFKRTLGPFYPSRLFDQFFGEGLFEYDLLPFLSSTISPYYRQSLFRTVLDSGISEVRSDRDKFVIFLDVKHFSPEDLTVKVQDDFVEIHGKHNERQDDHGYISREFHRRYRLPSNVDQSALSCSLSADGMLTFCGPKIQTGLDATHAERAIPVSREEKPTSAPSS
Experimental: To investigate the effects of Aggrelyte-2 on advanced glycation end product (AGE) formation, human recombinant αAC (3 mg/mL) or γD-crystallin (γDC, 2 mg/mL) in PBS was treated with or without aggrelyte-2 (10 mM for αAC and 1.25 mM for γDC) for 24 h, dialyzed against 100 mM sodium phosphate buffer pH 7.4 for 16 h and incubated with or without a glycating mixture (2 mM ascorbate, 25 mM D-glucose and 250 μM methylglyoxal) in 100 mM sodium phosphate buffer pH 7.4 for 5 days (after adding 0.002% sodium azide) at 37° C. The incubated proteins were dialyzed against PBS for 16 h, treated with 100 mM sodium borohydride for 1 h at room temperature, and acid hydrolyzed. Two AGEs, N^−-carboxymethyllysine (CML) and N^□-carboxyethyllysine (CEL), were measured by LC-MS/MS as described above. Each sample was separately processed 3-4 times.

| SMILES | degraded during 3-day incubation [1] | degraded during 7-day incubation [1] | amount of AcK-bearing proteins (Western blot densitometry) [2] | AcK levels, fold increase compared to Aggrelyte-2C-treated samples ([3]; combined mean values) | AcK levels, fold increase compared to untreated controls ([3]; combined mean values) | AcK level [3] | levels of αAC, fold higher than in the Aggrelyte-2C-treated samples (αA-crystallin (αAC)) | lens stiffness vs untreated control lenses (mouse lenses; 6-month-old mouse lenses) | axial strain vs controls (mouse lenses; mouse lenses) | displacement, % greater than that by Aggrelyte-2C (mouse lenses; mouse lenses, not significantly greater) | AcK levels, cortical protein fraction (Western blot) (human lenses) | AcK levels, nuclear protein fraction (Western blot) (human lenses) | levels of both CML and CEL (AGEs) after glycation (human recombinant αAC) |
| --- | --- | --- | --- | --- | --- | --- | --- | --- | --- | --- | --- | --- | --- |
| COC(=O)[C@H](CSC(C)=O)NC(C)=O [Aggrelyte-2, N,S-diacetyl-L-cysteine methyl ester] | 30% | 42% | significantly (p<0.001) increased | 2.4 fold | 1.9 fold | 1.5-2.1 nmol/mg protein | 1.3 fold | significantly (p<0.05) reduced the stiffness | significantly (p<0.05) reduced the axial strain | 8.7% | significantly increases | significantly increases | significantly reduced (p<0.0001) |
| COC(=O)[C@H](CS)NC(C)=O [Aggrelyte-2C, N-acetyl-L-cysteine methyl ester] | 21% | 37% | did not increase the AcK levels | – | – | 0.6-0.9 nmol/mg protein | – | – | did not have a significant effect | – | not statistically different | not statistically different | – |
